From ChEMBL document CHEMBL1154392 (Bioorg Med Chem Lett, 2009)
Values belong to the molecule of their own block, whether it stands above or below them.

Columns and labels:
[1] = system: A-375; assay: Cytotoxicity against human A375 cells expressing B-RafV600E mutant; type: functional, cell-based
[2] = biological target: Serine/threonine-protein kinase B-raf (Homo sapiens, UniProt P15056); assay: Inhibition of human recombinant B-Raf expressed in Sf9 cells assessed as inhibition of Mek1 phosphorylation
[3] = system: HT-29; assay: Cytotoxicity against human HT-29 cells expressing B-RafV600E mutant; type: functional, cell-based
[4] = system: Caco-2; assay: Cytotoxicity against human Caco-2 cells expressing wild type B-Raf; type: functional, cell-based
[5] = biological target: Aurora kinase B (Homo sapiens, UniProt Q96GD4); assay: Inhibition of Aurora B
[6] = biological target: Cyclin-dependent kinase 1 (Homo sapiens, UniProt P06493); assay: Inhibition of CDK1
[7] = biological target: Cyclin-dependent kinase 2 (Homo sapiens, UniProt P24941); assay: Inhibition of CDK2
[8] = biological target: Serine/threonine-protein kinase Chk1 (Homo sapiens, UniProt O14757); assay: Inhibition of CHK1
[9] = biological target: Casein kinase I isoform gamma-1 (Homo sapiens, UniProt Q9HCP0); assay: Inhibition of CK1gamma1
[10] = biological target: Mitogen-activated protein kinase 1 (Homo sapiens, UniProt P28482); assay: Inhibition of ERK2
[11] = biological target: Tyrosine-protein kinase Fyn (Homo sapiens, UniProt P06241); assay: Inhibition of FYN
[12] = biological target: Mitogen-activated protein kinase kinase kinase kinase 2 (Homo sapiens, UniProt Q12851); assay: Inhibition of GCK
[13] = biological target: Tyrosine-protein kinase HCK (Homo sapiens, UniProt P08631); assay: Inhibition of HCK
[14] = biological target: Inhibitor of nuclear factor kappa-B kinase subunit alpha (Homo sapiens, UniProt O15111); assay: Inhibition of IKKalpha
[15] = biological target: Inhibitor of nuclear factor kappa-B kinase subunit beta (Homo sapiens, UniProt O14920); assay: Inhibition of IKK-beta
[16] = biological target: Tyrosine-protein kinase Lyn (Homo sapiens, UniProt P07948); assay: Inhibition of LYN
[17] = biological target: Hepatocyte growth factor receptor (Homo sapiens, UniProt P08581); assay: Inhibition of Met
[18] = biological target: MAP kinase-activated protein kinase 2 (Homo sapiens, UniProt P49137); assay: Inhibition of MK2
[19] = biological target: Platelet-derived growth factor receptor alpha (Homo sapiens, UniProt P16234); assay: Inhibition of PDGFRalpha
[20] = Inhibition of PKA
[21] = biological target: Protein kinase C alpha type (Homo sapiens, UniProt P17252); assay: Inhibition of PKCalpha
[22] = biological target: Protein kinase C beta type (Homo sapiens, UniProt P05771); assay: Inhibition of PKCbeta
[23] = biological target: Rho-associated protein kinase 1 (Homo sapiens, UniProt Q13464); assay: Inhibition of ROCK1
[24] = biological target: Ribosomal protein S6 kinase alpha-1 (Homo sapiens, UniProt Q15418); assay: Inhibition of RSk1
[25] = biological target: Proto-oncogene tyrosine-protein kinase Src (Homo sapiens, UniProt P12931); assay: Inhibition of SRC
[26] = Inhibition of VEGFR2
[27] = biological target: Mitogen-activated protein kinase 14 (Homo sapiens, UniProt Q16539); assay: Inhibition of p38alpha
[28] = biological target: Tyrosine-protein kinase ABL1 (Homo sapiens, UniProt P00519)

Sequence of Serine/threonine-protein kinase B-raf (P15056 whole entry): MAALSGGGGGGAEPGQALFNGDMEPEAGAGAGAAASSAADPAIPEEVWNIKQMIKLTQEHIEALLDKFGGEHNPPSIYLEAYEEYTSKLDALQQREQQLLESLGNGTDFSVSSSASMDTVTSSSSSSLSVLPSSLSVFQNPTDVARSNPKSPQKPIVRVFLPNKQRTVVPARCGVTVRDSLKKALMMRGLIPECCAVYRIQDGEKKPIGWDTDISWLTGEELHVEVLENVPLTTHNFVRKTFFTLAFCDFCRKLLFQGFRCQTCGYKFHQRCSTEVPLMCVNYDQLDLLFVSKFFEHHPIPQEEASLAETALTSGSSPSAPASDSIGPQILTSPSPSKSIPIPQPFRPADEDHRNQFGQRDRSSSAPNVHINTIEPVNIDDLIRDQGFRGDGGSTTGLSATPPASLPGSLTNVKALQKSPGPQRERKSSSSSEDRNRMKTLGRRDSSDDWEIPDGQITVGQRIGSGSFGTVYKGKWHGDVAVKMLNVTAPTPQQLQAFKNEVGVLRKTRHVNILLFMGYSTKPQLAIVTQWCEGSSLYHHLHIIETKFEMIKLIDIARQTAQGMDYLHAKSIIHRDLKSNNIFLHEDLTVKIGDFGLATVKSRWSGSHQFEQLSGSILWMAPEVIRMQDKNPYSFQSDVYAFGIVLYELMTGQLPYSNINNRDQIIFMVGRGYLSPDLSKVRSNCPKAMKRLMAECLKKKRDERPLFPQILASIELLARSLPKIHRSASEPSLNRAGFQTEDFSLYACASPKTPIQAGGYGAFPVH
Sequence of Tyrosine-protein kinase HCK (P08631 whole entry): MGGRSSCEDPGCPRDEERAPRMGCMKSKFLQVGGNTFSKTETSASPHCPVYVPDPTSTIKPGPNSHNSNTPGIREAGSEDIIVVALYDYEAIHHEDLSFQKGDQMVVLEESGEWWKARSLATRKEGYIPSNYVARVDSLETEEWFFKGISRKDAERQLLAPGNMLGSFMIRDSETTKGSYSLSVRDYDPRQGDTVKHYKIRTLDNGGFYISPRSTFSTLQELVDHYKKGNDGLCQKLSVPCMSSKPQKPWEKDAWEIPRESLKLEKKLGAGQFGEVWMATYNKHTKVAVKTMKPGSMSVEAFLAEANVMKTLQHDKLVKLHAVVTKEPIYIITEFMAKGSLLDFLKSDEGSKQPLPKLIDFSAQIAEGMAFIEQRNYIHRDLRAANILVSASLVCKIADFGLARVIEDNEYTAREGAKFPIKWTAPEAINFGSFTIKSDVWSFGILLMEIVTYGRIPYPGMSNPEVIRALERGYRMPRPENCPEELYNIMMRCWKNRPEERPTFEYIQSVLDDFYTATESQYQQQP
Sequence of Tyrosine-protein kinase Fyn (P06241 whole entry): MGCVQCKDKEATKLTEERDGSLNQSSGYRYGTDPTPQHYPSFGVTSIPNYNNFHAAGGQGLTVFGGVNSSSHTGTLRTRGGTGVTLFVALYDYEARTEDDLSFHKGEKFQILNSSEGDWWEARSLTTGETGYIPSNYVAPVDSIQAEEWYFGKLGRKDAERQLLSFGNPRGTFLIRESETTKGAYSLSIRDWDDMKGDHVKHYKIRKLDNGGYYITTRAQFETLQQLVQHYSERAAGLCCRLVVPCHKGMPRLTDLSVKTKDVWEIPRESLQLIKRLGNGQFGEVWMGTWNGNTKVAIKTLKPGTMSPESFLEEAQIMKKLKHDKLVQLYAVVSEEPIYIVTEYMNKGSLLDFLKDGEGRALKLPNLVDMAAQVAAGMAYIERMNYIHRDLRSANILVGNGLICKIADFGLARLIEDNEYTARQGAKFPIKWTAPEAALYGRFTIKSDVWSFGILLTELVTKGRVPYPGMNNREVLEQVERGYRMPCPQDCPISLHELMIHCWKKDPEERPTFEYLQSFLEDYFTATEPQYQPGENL
Sequence of Aurora kinase B (Q96GD4 whole entry): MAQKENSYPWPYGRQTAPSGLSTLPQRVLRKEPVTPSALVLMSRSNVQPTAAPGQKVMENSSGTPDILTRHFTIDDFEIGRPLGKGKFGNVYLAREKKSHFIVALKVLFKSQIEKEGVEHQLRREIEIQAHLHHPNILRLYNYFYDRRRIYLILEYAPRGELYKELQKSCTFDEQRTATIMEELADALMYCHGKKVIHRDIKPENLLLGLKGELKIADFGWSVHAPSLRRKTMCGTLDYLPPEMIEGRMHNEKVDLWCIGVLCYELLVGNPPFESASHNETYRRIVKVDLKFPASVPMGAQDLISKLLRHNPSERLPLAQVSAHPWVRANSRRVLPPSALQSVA
Sequence of MAP kinase-activated protein kinase 2 (P49137 whole entry): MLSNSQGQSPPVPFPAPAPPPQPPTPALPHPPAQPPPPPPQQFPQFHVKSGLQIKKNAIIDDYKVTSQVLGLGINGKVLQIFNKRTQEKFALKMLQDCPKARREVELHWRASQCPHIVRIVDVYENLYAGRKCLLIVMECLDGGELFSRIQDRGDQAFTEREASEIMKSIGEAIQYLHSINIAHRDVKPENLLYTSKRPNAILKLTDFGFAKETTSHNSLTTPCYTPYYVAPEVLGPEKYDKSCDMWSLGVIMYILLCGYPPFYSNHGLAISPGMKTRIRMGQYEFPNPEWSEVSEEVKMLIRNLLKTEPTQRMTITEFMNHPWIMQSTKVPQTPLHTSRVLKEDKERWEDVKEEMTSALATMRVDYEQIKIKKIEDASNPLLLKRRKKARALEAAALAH
Sequence of Mitogen-activated protein kinase kinase kinase kinase 2 (Q12851 whole entry): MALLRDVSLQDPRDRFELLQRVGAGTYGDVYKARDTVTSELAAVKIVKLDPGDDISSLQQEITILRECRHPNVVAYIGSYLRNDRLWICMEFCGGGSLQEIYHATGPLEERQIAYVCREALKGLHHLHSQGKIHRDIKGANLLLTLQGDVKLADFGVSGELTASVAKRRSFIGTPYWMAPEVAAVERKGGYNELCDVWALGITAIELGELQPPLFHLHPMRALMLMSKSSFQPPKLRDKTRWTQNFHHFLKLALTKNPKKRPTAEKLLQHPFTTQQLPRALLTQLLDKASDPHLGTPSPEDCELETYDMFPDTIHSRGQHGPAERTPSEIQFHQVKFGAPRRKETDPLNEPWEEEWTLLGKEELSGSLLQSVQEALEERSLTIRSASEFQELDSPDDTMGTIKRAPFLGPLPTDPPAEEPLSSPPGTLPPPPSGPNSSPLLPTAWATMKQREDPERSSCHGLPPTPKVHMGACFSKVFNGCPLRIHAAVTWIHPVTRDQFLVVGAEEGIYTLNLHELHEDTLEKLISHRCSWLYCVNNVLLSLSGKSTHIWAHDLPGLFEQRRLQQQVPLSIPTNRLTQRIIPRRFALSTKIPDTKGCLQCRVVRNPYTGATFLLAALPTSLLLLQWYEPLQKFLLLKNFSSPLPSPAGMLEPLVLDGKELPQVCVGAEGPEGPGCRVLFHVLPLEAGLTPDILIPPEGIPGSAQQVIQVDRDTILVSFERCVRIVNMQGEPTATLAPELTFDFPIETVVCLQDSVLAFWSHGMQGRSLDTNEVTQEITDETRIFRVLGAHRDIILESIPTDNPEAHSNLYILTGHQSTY
Sequence of Inhibitor of nuclear factor kappa-B kinase subunit alpha (O15111 whole entry): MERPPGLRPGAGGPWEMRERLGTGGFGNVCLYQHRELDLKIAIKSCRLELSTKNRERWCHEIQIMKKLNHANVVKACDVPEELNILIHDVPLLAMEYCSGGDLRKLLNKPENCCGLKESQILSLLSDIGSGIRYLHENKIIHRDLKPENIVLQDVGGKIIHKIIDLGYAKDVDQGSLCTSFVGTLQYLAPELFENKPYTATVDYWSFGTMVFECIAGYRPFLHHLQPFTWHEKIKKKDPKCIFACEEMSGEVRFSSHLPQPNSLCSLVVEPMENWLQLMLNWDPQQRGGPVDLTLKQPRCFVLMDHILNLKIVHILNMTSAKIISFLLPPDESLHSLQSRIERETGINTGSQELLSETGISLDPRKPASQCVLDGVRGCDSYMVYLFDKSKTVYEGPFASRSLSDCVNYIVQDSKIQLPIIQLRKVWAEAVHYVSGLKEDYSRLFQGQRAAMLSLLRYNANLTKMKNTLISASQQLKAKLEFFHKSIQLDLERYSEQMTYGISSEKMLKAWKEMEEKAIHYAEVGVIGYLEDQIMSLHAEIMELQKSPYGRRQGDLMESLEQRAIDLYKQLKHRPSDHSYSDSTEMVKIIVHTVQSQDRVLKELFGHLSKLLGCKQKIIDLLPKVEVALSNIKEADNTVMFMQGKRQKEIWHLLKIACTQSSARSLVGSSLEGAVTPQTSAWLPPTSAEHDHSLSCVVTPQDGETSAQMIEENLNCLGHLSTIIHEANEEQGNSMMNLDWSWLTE
Sequence of Mitogen-activated protein kinase 14 (Q16539 whole entry): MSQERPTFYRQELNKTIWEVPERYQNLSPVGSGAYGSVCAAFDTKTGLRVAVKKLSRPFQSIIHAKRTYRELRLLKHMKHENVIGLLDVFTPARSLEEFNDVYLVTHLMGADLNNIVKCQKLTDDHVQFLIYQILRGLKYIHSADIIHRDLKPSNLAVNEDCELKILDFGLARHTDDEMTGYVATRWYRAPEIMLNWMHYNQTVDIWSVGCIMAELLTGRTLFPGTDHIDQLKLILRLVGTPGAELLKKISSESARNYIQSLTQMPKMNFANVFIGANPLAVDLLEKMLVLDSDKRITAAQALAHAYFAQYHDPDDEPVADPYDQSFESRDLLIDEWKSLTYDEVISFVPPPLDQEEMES
Sequence of Cyclin-dependent kinase 1 (P06493 whole entry): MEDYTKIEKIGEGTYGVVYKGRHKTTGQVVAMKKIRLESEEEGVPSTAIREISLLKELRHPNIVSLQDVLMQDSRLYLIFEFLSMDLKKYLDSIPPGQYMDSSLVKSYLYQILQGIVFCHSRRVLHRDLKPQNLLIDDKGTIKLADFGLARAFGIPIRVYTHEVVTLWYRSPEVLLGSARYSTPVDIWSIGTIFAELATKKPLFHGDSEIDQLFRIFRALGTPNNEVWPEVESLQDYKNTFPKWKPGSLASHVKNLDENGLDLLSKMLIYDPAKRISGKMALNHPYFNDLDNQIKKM

Compound: CC(=O)N1C[C@@H]2C[C@H]1CN2c1ccc(-c2ccnc3c(-c4ccc(F)c(O)c4)c(-c4ccncc4)nn23)cc1
IC50 [1]: 0.21 µM

IC50 [2]: 0.001 µM
Compound: COc1cc(-c2c(-c3ccncc3)nn3c(-c4ccc(N5C[C@@H]6C[C@H]5CN6C)cc4C)ccnc23)ccc1F
IC50 [1]: 0.933 µM

Compound: COc1cc(-c2c(-c3ccncc3)nn3c(-c4ccc(N5C[C@@H]6C[C@H]5CN6)cc4)ccnc23)ccc1F
IC50 [1]: 1.2 µM

Compound: CN1C2CCC1CN(c1ccc(-c3ccnc4c(-c5cccc(O)c5)c(-c5ccncc5)nn34)cc1)C2
IC50 [2]: 0.0009 µM | IC50 [1]: 0.3 µM | IC50 [3]: 0.27 µM | IC50 [4]: 1.3 µM

Compound: COc1cccc(-c2c(-c3ccncc3)nn3c(-c4ccc(N5C[C@@H]6C[C@H]5CN6C)cc4)ccnc23)c1
IC50 [1]: 0.76 µM

Compound: COc1cc(-c2c(-c3ccncc3)nn3c(-c4ccc(N5C[C@@H]6C[C@H]5CN6C)cc4)ccnc23)ccc1F
IC50 [1]: 6 µM

IC50 [2]: 0.00051 µM
Compound: CCN1C[C@@H]2C[C@H]1CN2c1ccc(-c2ccnc3c(-c4ccc(F)c(O)c4)c(-c4ccncc4)nn23)cc1
IC50 [1]: 0.2 µM

IC50 [2]: 0.012 µM
Compound: COc1cccc(-c2c(-c3ccncc3)nn3c(-c4ccc(N5C[C@@H]6C[C@H]5CN6)cc4)ccnc23)c1
IC50 [1]: 1.1 µM

IC50 [2]: 0.00044 µM
Compound: COc1cccc(-c2c(-c3ccncc3)nn3c(-c4ccc(N5C[C@@H]6C[C@H]5CN6)cc4F)ccnc23)c1
IC50 [1]: 0.504 µM

Compound: COc1cccc(-c2c(-c3ccncc3)nn3c(-c4ccc(N5CC6CCC(C5)N6C)cc4)ccnc23)c1
IC50 [2]: 0.017 µM | IC50 [1]: 1.9 µM

Compound: CN1C2CCC1CN(c1ccc(-c3ccnc4c(-c5ccc(Cl)c(O)c5)c(-c5ccncc5)nn34)cc1)C2
IC50 [2]: < 0.00032 µM | IC50 [1]: 0.17 µM

IC50 [2]: < 0.00032 µM
Compound: CN1C[C@@H]2C[C@H]1CN2c1ccc(-c2ccnc3c(-c4cccc(O)c4)c(-c4ccncc4)nn23)c(Cl)c1
IC50 [1]: < 0.01 µM

IC50 [2]: < 0.00032 µM
Compound: CN1C[C@@H]2C[C@H]1CN2c1ccc(-c2ccnc3c(-c4ccc(F)c(O)c4)c(-c4ccncc4)nn23)cc1
IC50 [1]: 0.076 µM

IC50 [2]: < 0.00032 µM
Compound: Cc1cc(N2C[C@@H]3C[C@H]2CN3C)ccc1-c1ccnc2c(-c3ccc(F)c(O)c3)c(-c3ccncc3)nn12
IC50 [1]: 0.015 µM

Compound: Oc1cccc(-c2c(-c3ccncc3)nn3c(-c4ccc(N[C@H]5CN6CCC5CC6)cc4)ccnc23)c1
IC50 [2]: 0.001 µM | IC50 [1]: 0.385 µM

IC50 [2]: < 0.00032 µM
Compound: Cc1cc(N2C[C@@H]3C[C@H]2CN3C)ccc1-c1ccnc2c(-c3cccc(O)c3)c(-c3ccncc3)nn12
IC50 [1]: 0.031 µM

IC50 [2]: 0.00049 µM
Compound: Oc1cccc(-c2c(-c3ccncc3)nn3c(-c4ccc(N5C[C@@H]6C[C@H]5CN6)cc4)ccnc23)c1
IC50 [1]: 0.3 µM

Compound: Cc1cc(N2C[C@@H]3C[C@H]2CN3)ccc1-c1ccnc2c(-c3cccc(O)c3)c(-c3ccncc3)nn12
IC50 [1]: 0.065 µM

IC50 [2]: < 0.00032 µM
Compound: CN1C[C@@H]2C[C@H]1CN2c1ccc(-c2ccnc3c(-c4cccc(O)c4)c(-c4ccncc4)nn23)c(F)c1
IC50 [1]: 0.012 µM

Compound: Oc1cccc(-c2c(-c3ccncc3)nn3c(-c4ccc(N[C@@H]5CN6CCC5CC6)cc4)ccnc23)c1
IC50 [2]: 0.0015 µM | IC50 [1]: 0.37 µM

Compound: CN1C[C@@H]2C[C@H]1CN2c1ccc(-c2ccnc3c(-c4cccc(O)c4)c(-c4ccncc4)nn23)cc1
IC50 [2]: 0.00038 µM | IC50 [1]: 0.077 µM | IC50 [5]: 25.5 µM | IC50 [6]: 28.4 µM | IC50 [7]: 26.4 µM | IC50 [8]: 18.6 µM | IC50 [9]: 9.51 µM | IC50 [10]: > 50 µM | IC50 [11]: 1.94 µM | IC50 [12]: 4.1 µM | IC50 [13]: 1.24 µM | IC50 [14]: > 50 µM | IC50 [15]: > 50 µM | IC50 [16]: 1.76 µM | IC50 [17]: 3.1 µM | IC50 [18]: 17.1 µM | IC50 [19]: 6.56 µM | IC50 [20]: 1.79 µM | IC50 [21]: 2.46 µM | IC50 [22]: 0.119 µM | IC50 [23]: 17.6 µM | IC50 [24]: 9.71 µM | IC50 [25]: 0.675 µM | IC50 [26]: 0.222 µM | IC50 [27]: 0.069 µM | IC50 [28]: 0.563 µM

Compound: COc1cc(-c2c(-c3ccncc3)nn3c(-c4ccc(N5CC6CCC(C5)N6C)cc4)ccnc23)ccc1Cl
IC50 [2]: 0.0097 µM | IC50 [1]: 0.63 µM

Compound: Oc1cccc(-c2c(-c3ccncc3)nn3c(-c4ccc(NCC56CCN(CC5)CC6)cc4)ccnc23)c1
IC50 [2]: 0.002 µM | IC50 [1]: 0.93 µM

IC50 [2]: < 0.00032 µM
Compound: Oc1cccc(-c2c(-c3ccncc3)nn3c(-c4ccc(N5C[C@@H]6C[C@H]5CN6)cc4F)ccnc23)c1
IC50 [1]: 0.023 µM

IC50 [2]: < 0.00032 µM
Compound: Oc1cccc(-c2c(-c3ccncc3)nn3c(-c4ccc(N5C[C@@H]6C[C@H]5CN6)cc4Cl)ccnc23)c1
IC50 [1]: 0.016 µM

IC50 [2]: < 0.00032 µM
Compound: Oc1cc(-c2c(-c3ccncc3)nn3c(-c4ccc(N5C[C@@H]6C[C@H]5CN6)cc4)ccnc23)ccc1F
IC50 [1]: 0.15 µM

IC50 [2]: 1.5 µM
Compound: CCOC(=O)c1cnn2c(-c3cccc(NC(=O)c4cccc(C(F)(F)F)c4)c3)ccnc12
